Assay results reported in patent US8772267B2, “Treatment of spinal mechanical pain” (New York University, priority 2002, dated 2014).

Key:
[1] = known; cited from earlier work
[2] = system: antinociception; conditions: injected into the tails of mice; cited from earlier work
[3] = system: bone resorption; conditions: animal studies, cited from earlier work
[4] = Adverse effects in the infused subjects; type: in vivo, human
Experimental: (§1) Three subjects, suffering from chronic daily (longer than 1 year) axial mechanical pain of the spine, were given approximately 1.2 mg per kg pamidronate as an intravenous infusion over 4 hours once a day for three consecutive days (total 3.6 mg/kg).
(§2) On the second day of infusion, 2 of the 3 subjects reported myalgias that responded well to anti-inflammatory (NSAID) agents. […] Assessments of axial spinal pain using a numerical scale (0=no pain; 10=the worst pain imaginable) were performed at baseline and at 1 month, 2 month, 4 month, and 6 month follow-up visits.

[5] = system: axial mechanical pain of the spine; experiment: Axial spinal pain on a numerical scale after intravenous infusion in subjects with chronic spinal mechanical pain; type: in vivo, human
Experimental: as §1, §2

[6] = system: bone pain from metastatic cancer; conditions: patients suffering from bone pain from metastatic cancer; cited from earlier work
[7] = Bone density of the infused subjects; type: in vivo, human; conditions: all three subjects
Experimental: as §1
Assessments of axial spinal pain using a numerical scale (0=no pain; 10=the worst pain imaginable) were performed at baseline and at 1 month, 2 month, 4 month, and 6 month follow-up visits.

[8] = Subject 1, baseline 8, scale 0-10, 1.2 mg/kg iv once a day for 3 days
[9] = Subject 2, baseline 8-9, scale 0-10, 1.2 mg/kg iv once a day for 3 days
[10] = Subject 3, baseline 5, scale 0-10, 1.2 mg/kg iv once a day for 3 days

CC(=O)Nc1ccc(O)cc1 [acetaminophen]
duration of analgesic effect [1]: only a few hours

CC(=O)Oc1ccccc1C(=O)O [acetylsalicylic acid]
antinociceptive effect [2]: dose-dependent antinociception

NCCCC(O)(P(=O)(O)O)P(=O)(O)O [alendronate]
antinociceptive effect [2]: analgesic effect only at the highest dose tested

O=P(O)(O)C(Cl)(Cl)P(=O)(O)O [clodronate]
antinociceptive effect [2]: dose-dependent antinociception

CC(O)(P(=O)(O)O)P(=O)(O)O [etidronate]
antinociceptive effect [2]: analgesic effect only at the highest dose tested

CC(C)Cc1ccc(C(C)C(=O)O)cc1 (centres unmarked) [ibuprofen]
duration of analgesic effect [1]: only a few hours

NCCC(O)(P(=O)(O)O)P(=O)(O)O [pamidronate]
antinociceptive effect [2]: dose-dependent antinociception | effect on bone resorption ([3]; doses recommended for the treatment of hypercalcemia): inhibits bone resorption apparently without inhibiting bone formation and mineralization | effect on accelerated bone resorption from osteoclast hyperactivity induced by various tumors [3]: inhibits the accelerated bone resorption | subjects reporting myalgias ([4]; second day of infusion, responded well to NSAID agents): 2 of the 3 | hypocalcemia, cardiac, hepatic or renal impairments ([4]; three subjects, 3.6 mg/kg total iv): did not exhibit any hypocalcemia, cardiac, hepatic or renal impairments | use of opioid agents ([5]; 2 months from initiation of infusion therapy): all subjects discontinued the opioid agents | pain status of all three subjects 6 months after the 3-day therapy ([5]; 6 months after therapy, all three subjects): pain free | axial spinal pain, numerical scale, 1 month ([5]; Subject 1 (DDD and osteopenia), baseline 8, 0=no pain, 10=worst pain imaginable, 1.2 mg/kg iv over 4 h once a day for 3 days): 4 | axial spinal pain, numerical scale, 2 months [5, 8]: 0 | axial spinal pain, numerical scale, 4 months [5, 8]: 0 | axial spinal pain, numerical scale, 6 months [5, 8]: 0 | axial spinal pain, numerical scale, 1 month ([5]; Subject 2 (DDD and moderate osteoporosis), baseline 8-9, scale 0-10, 1.2 mg/kg iv once a day for 3 days): 5 | axial spinal pain, numerical scale, 2 months [5, 9]: 0 | axial spinal pain, numerical scale, 4 months [5, 9]: 0 | axial spinal pain, numerical scale, 6 months [5, 9]: 0 | axial spinal pain, numerical scale, 1 month ([5]; Subject 3 (DDD), baseline 5, scale 0-10, 1.2 mg/kg iv once a day for 3 days): 0 | axial spinal pain, numerical scale, 2 months [5, 10]: 0 | axial spinal pain, numerical scale, 4 months [5, 10]: 0 | axial spinal pain, numerical scale, 6 months [5, 10]: 0 | duration of pain relieving effects ([5]; iv treatment of chronic spinal mechanical pain): ≥ 6 months | longest reported duration of analgesic effect [6]: 2-3 weeks | bone density change [7]: increase in their bone density | bone density change at 6 months post-infusion ([7]; 6 months post-infusion): increase in their bone density
